# What was measured:
# untransformed tissue = test: Visual selection with IFT as selectable agent; type: cell-based, soybean; conditions: FIG. 1; transformed material becomes green
# Text: FIG. 1: Visual selection with IFT as selectable agent.
# untransformed cells = test: Selection with DKN as selectable agent in Shoot Induction medium, cotyledonary node method; type: cell-based, soybean; conditions: DKN 2 ppm in Shoot Induction medium
# Method: The cotyledonary node method used for transforming soybean has been described by Zhang et al., 1999, Clemente et al. 2000, Xing et al. 2000.
# After washing, the explants are placed (5 per plate) on the Shoot Initiation Medium, inclined at 45°, with the cotyledonary node area imbedded in the medium and upwards. The Shoot Initiation step lasts 1 month (24° C. 16/8 photoperiod) with a transfer after 15 days in which the hypocotyl is eliminated to keep only the differentiating area and the cotyledon.
# 1×B5 major salts, 1×B5 minor salts, 28 mg/L Ferrous, 38 mg/L NaEDTA, 30 g/L Sucrose, 0.59 g/L MES, and 7 g/L Noble agar (pH 5.7). Filter sterilized 1×B5 vitamins, BAP (1.11 mg/L), Timentin (50 mg/L), Cefotaxime (200 mg/L), Vancomycin (50 mg/L) and the selection agent are added to this medium after autoclaving.
# Transgenic events (cv Thorne) were generated for construct carrying hppd gene alone (e.i. pFCO117) or in combination with pdh gene (e.i. pFCO48), using DKN as selection agent, as described in example 1. Selection agent DKN (diketonitrile) was added in SI (Shoot Induction medium) at a final concentration of 2 ppm and for about 4 week. When explants were transferred to SE (Shoot Elongation medium), selection was removed. […] Visual selectable marker dramatically decreases selection time, as untransformed material can be identified and eliminated in as little as 4 weeks after transformation.
# [1] = about 4 weeks, cv Thorne, in vitro
Compound,phenotype of untransformed tissue (untransformed tissue),effect on chlorophyll synthesis (untransformed cells; [1]),lethality for untransformed cells (untransformed cells; [1]),phenotype of untransformed tissue (untransformed cells; transformed material becomes green)
"CS(=O)(=O)c1cc(C(F)(F)F)ccc1C(=O)c1cnoc1C1CC1 [IFT, (5-cyclopropyl-4-isoxazolyl)[2-(methylsulfonyl)-4-(trifluoromethyl)phenyl]methanone]","white, elongated shoots",–,–,–
"CS(=O)(=O)c1cc(C(F)(F)F)ccc1C(=O)C(C#N)C(=O)C1CC1 (stereo not shown) [DKN, 2-cyano-3-cyclopropyl-1-(2-methylsulphonyl-4-trifluoromethylphenyl)-propane-1,3-dione]",–,prevents chlorophyll synthesis,does not kill untransformed cells,"white, elongated shoots"
